According to US8476197B2, “Aminopropenoates as fungicides” (priority 2009, dated 2013):
Marks after values point to notes of the source that are not given here.

Settings: pH 2.3

| SMILES | Log P |
| --- | --- |
| CCOC(=O)C(C#N)=C(NC(C)C(F)(F)F)c1cccnc1OC (racemic) [Compound 807] | 3.05 |
| CCCCCCC(C)NC(=C(C#N)C(=O)OCC)c1cccnc1Cl (racemic) [Compound 819] | 4.53 |
| CNC(=O)C(C#N)=C(NC(C)C1CC1)c1cccnc1Cl (racemic) [Compound 908] | 2.2^[c]; 2.2^[b] |

Same assay, conditions: pH 2.7

| SMILES | Log P |
| --- | --- |
| CCOC(=O)C(C#N)=C(NC(C(=O)OC)C(C)C)c1sccc1C(F)(F)F (racemic) [Compound 658] | 3.62^[a] |
| CCOC(=O)C(C#N)=C(NC(C)C(N)=O)c1sccc1C(F)(F)F (racemic) [Compound 660] | 2.13^[a] |
| COC(=O)C(C#N)=C(NC(C)C(=O)Nc1ccc2ccccc2c1)c1sc(C)nc1C(F)(F)F (racemic) [Compound 661] | 3.69^[a] |
| COC(=O)C(C#N)=C(NC(C)COc1c(C)cccc1C)c1sc(C)nc1C(F)(F)F (racemic) [Compound 662] | 4.34^[a] |
| COCC(C)NC(=C(C#N)C(=O)OC)c1sc(C)nc1C(F)(F)F (racemic) [Compound 663] | 2.75^[a] |
| CCOC(=O)C(C)NC(=C(C#N)C(=O)OC)c1sc(C)nc1C(F)(F)F (racemic) [Compound 664] | 2.96^[a] |
| COC(=O)C(C#N)=C(NC(C(=O)OC)C(C)C)c1sc(C)nc1C(F)(F)F (racemic) [Compound 666] | 3.29^[a] |
| COC(=O)C(C#N)=C(NC(C)C(N)=O)c1sc(C)nc1C(F)(F)F (racemic) [Compound 668] | 1.78^[a] |
| CCOC(=O)C(C#N)=C(NC(C)C(=O)Nc1ccc2ccccc2c1)c1sccc1Br (racemic) [Compound 669] | 3.89^[a] |
| CCOC(=O)C(C#N)=C(NC(C)COc1c(C)cccc1C)c1sccc1Br (racemic) [Compound 670] | 4.86^[a] |
| CCOC(=O)C(C#N)=C(NC(C)COC)c1sccc1Br (racemic) [Compound 671] | 3.17^[a] |
| CCOC(=O)C(C#N)=C(NC(C)C(=O)OCC)c1sccc1Br (racemic) [Compound 672] | 3.33^[a] |
| CCOC(=O)C(C#N)=C(NC(C(=O)OC)C(C)C)c1cn(C)nc1C(F)F (racemic) [Compound 674] | 2.84^[a] |
| CCOC(=O)C(C#N)=C(NC(C)C(=O)Nc1ccc2ccccc2c1)c1sc(C)nc1C(F)(F)F (racemic) [Compound 676] | 3.99^[a] |
| CCOC(=O)C(C#N)=C(NC(C)COc1c(C)cccc1C)c1sc(C)nc1C(F)(F)F (racemic) [Compound 677] | 4.7^[a] |
| CCOC(=O)C(C#N)=C(NC(C)COC)c1sc(C)nc1C(F)(F)F (racemic) [Compound 678] | 3.11^[a] |
| CCOC(=O)C(C#N)=C(NC(C)C(=O)OCC)c1sc(C)nc1C(F)(F)F (racemic) [Compound 679] | 3.29^[a] |
| CCOC(=O)C(C#N)=C(NC(C(=O)OC)C(C)C)c1sc(C)nc1C(F)(F)F (racemic) [Compound 681] | 3.64^[a] |
| CCOC(=O)C(C#N)=C(NC(C)CC(C)C)c1cc(C)oc1C (racemic) [Compound 779] | 4.35^[a] |
| CCOC(=O)C(C#N)=C(NC(C)CC(C)C)c1cn(C)nc1C(F)F (racemic) [Compound 780] | 3.46^[a] |
| CCOC(=O)C(C#N)=C(NC(C)CC(C)C)c1sccc1C(F)(F)F (racemic) [Compound 781] | 4.54^[a] |

| SMILES | Log P |
| --- | --- |
| COC(=O)C(C#N)=C(NC(C)CC(C)C)c1sc(C)nc1C(F)(F)F (racemic) [Compound 782] | 3.9^[a] |
| CCOC(=O)C(C#N)=C(NC(C)CC(C)C)c1sccc1Br (racemic) [Compound 783] | 4.46^[a] |
| CCOC(=O)C(C#N)=C(NC(C)CC(C)C)c1sc(C)nc1C(F)(F)F (racemic) [Compound 784] | 4.29^[a] |
| CCOC(=O)C(C#N)=C(NC(C)CC(C)C)c1ccsc1Br (racemic) [Compound 785] | 4.41^[a] |
| CCOC(=O)C(C#N)=C(NC(C)C(F)(F)F)c1cn(C)nc1OC (racemic) [Compound 808] | 2.82^[a] |
| CCOC(=O)C(C#N)=C(NC(C)C(F)(F)F)c1sc(Cl)nc1Cl (racemic) [Compound 809] | 3.75^[a] |
| CCOC(=O)C(C#N)=C(NC(C)C(F)(F)F)c1cc(Cl)sc1Cl (racemic) [Compound 810] | 4.11^[a] |
| CCOC(=O)C(C#N)=C(NC(C)C(F)(F)F)c1cn(C)cc1C(F)(F)F (racemic) [Compound 812] | 3.64^[a] |
| CCCCCCC(C)NC(=C(C#N)C(=O)OCC)c1c(C)nn(C)c1F (racemic) [Compound 813] | 4.51^[a] |
| CCCCCCC(C)NC(=C(C#N)C(=O)OCC)c1sccc1Br (racemic) [Compound 814] | 5.48^[a] |
| CCCCCCC(C)NC(=C(C#N)C(=O)OCC)c1sccc1C(F)(F)F (racemic) [Compound 815] | 5.48^[a] |
| CCCCCCC(C)NC(=C(C#N)C(=O)OC)c1sc(C)nc1C(F)(F)F (racemic) [Compound 816] | 4.86^[a] |
| CCCCCCC(C)NC(=C(C#N)C(=O)OCC)c1cn(C)nc1C(F)F (racemic) [Compound 817] | 4.36^[a] |
| CCCCCCC(C)NC(=C(C#N)C(=O)OCC)c1sc(C)nc1C(F)(F)F (racemic) [Compound 818] | 5.22^[a] |
| CCCCCCC(C)NC(=C(C#N)C(=O)OCC)c1ccsc1Br (racemic) [Compound 820] | 5.41^[a] |
| CCOC(=O)C(C#N)=C(NC(C)CC)c1nc(Cl)ccc1Cl (racemic) [Compound 837] | 3.67^[a] |
| CCOC(=O)C(C#N)=C(NC(C)CC)c1cnc(Cl)cc1Cl (racemic) [Compound 838] | 3.64^[a] |
| CCOC(=O)C(C#N)=C(NC(C)CC)c1ncc(Cl)cc1Cl (racemic) [Compound 839] | 3.78^[a] |
| CCOC(=O)C(C#N)=C(NC(C)CC)c1cccnc1C(F)(F)F (racemic) [Compound 840] | 3.27^[a] |
| CCOC(=O)C(C#N)=C(NC(C)CC)c1nc(SC)ncc1Br (racemic) [Compound 841] | 3.89^[a] |
| CCOC(=O)C(C#N)=C(NC(C)CC)c1cccnc1C(F)F (racemic) [Compound 842] | 2.87^[a] |

| SMILES | Log P |
| --- | --- |
| CCOC(=O)C(C#N)=C(NC(C)CC)c1cnccc1C(F)(F)F (racemic) [Compound 843] | 3.17^[a] |
| CCCCCC(C)NC(=C(C#N)C(=O)OCC)c1sccc1Br (racemic) [Compound 846] | 5.03^[a] |
| CCCCCC(C)NC(=C(C#N)C(=O)OCC)c1sccc1C(F)(F)F (racemic) [Compound 849] | 5.05^[a] |
| CCCCCC(C)NC(=C(C#N)C(=O)OC)c1sc(C)nc1C(F)(F)F (racemic) [Compound 852] | 4.41^[a] |
| CCCCCC(C)NC(=C(C#N)C(=O)OCC)c1cn(C)nc1C(F)F (racemic) [Compound 855] | 3.94^[a] |
| CCCCCC(C)NC(=C(C#N)C(=O)OCC)c1sc(C)nc1C(F)(F)F (racemic) [Compound 858] | 4.81^[a] |
| CCOC(=O)C(C#N)=C(NC(C)C1CC1)c1cn(C)nc1C(F)(F)F (racemic) [Compound 894] | 3.29^[a] |
| CCOC(=O)C(C#N)=C(NC(C)C1CC1)c1cn(C)nc1C(C)F (racemic) [Compound 895] | 2.84^[a] |
| CCOC(=O)C(C#N)=C(NC(C)C1CC1)c1cc(Cl)ncc1Cl (racemic) [Compound 896] | 3.69^[a] |
| CCOC(=O)C(C#N)=C(NC(C)C1CC1)c1cnccc1C(F)(F)F (racemic) [Compound 897] | 3.2^[a] |
| CCOC(=O)C(C#N)=C(NC(C)C1CC1)c1ccncc1Cl (racemic) [Compound 898] | 3.03^[a] |
| CCOC(=O)C(C#N)=C(NC(C)C1CC1)c1cccnc1C(F)F (racemic) [Compound 899] | 2.9^[a] |
| CCOC(=O)C(C#N)=C(NC(C)C1CC1)c1cc(Cl)cc(Cl)n1 (racemic) [Compound 900] | 3.92^[a] |
| CCOC(=O)C(C#N)=C(NC(C)C1CC1)c1cn(C)cc1C(F)(F)F (racemic) [Compound 901] | 3.56^[a] |
| CCOC(=O)C(C#N)=C(NC(C)C1CC1)c1ccnc(Cl)c1Cl (racemic) [Compound 902] | 3.61^[a] |
| CCOC(=O)C(C#N)=C(NC(C)C1CC1)c1ccncc1Br (racemic) [Compound 903] | 3^[a] |
| CCOC(=O)C(C#N)=C(NC(C)C1CC1)c1ccncc1F (racemic) [Compound 904] | 2.8^[a] |
| CCOC(=O)C(C#N)=C(NC(C)C1CC1)c1ccncc1C(F)(F)F (racemic) [Compound 905] | 3.2^[a] |
| CCOC(=O)C(C#N)=C(NC(C)C(C)(C)C)c1cn(C)nc1C(F)F (racemic) [Compound 918] | 3.37^[a] |
| CCOC(=O)C(C#N)=C(NC(C)C(C)(C)C)c1sccc1C(F)(F)F (racemic) [Compound 919] | 4.46^[a] |
| COC(=O)C(C#N)=C(NC(C)C(C)(C)C)c1sc(C)nc1C(F)(F)F (racemic) [Compound 920] | 3.83^[a] |

Same assay, conditions: pH 7.5

| SMILES | Log P |
| --- | --- |
| CCOC(=O)C(C#N)=C(NC(C)CC(C)C)c1cccnc1Cl (racemic) [Compound 778] | 3.62 |
| CCOC(=O)C(C#N)=C(NC(C)C(F)(F)F)c1cccnc1OC (racemic) [Compound 807] | 3.04 |
| CCCCCCC(C)NC(=C(C#N)C(=O)OCC)c1cccnc1Cl (racemic) [Compound 819] | 4.55 |
| CCCCCC(C)NC(=C(C#N)C(=O)OCC)c1cccnc1Cl (racemic) [Compound 859] | 4.1 |
| CNC(=O)C(C#N)=C(NC(C)C1CC1)c1cccnc1Cl (racemic) [Compound 908] | 2.2^[c]; 2.2^[b] |
